Results as given in ChEMBL document CHEMBL1201861, “Genomics of Drug Sensitity in Cancer screening data, Wellcome Trust Sanger Institute”.
pIC50: −log10 of the molar value.

How the values were obtained:
Assay in all cases: cells
[1] = system: HCC1954; format: functional, cell-based, Homo sapiens;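 note: growth inhibition of human HCC1954 cells, read out with a cell viability assay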
Description: SANGER: Inhibition of human HCC1954 cell growth in a cell viability assay.

[2] = system: HGC-27; format: functional, cell-based, Homo sapiens;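 note: growth inhibition of human HGC-27 cells, read out in a cell viability assay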
Description: SANGER: Inhibition of human HGC-27 cell growth in a cell viability assay.

[3] = system: HN; format: functional, cell-based, Homo sapiens
Description: SANGER: Inhibition of human HN cell growth in a cell viability assay.

[4] = system: HT-3; format: functional, cell-based, Homo sapiens;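 note: growth inhibition measured with a cell viability readout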
Description: SANGER: Inhibition of human HT-3 cell growth in a cell viability assay.

[5] = system: HuCCT-1; format: functional, cell-based, Homo sapiens, HuCCT1;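 note: growth inhibition of HuCCT-1 cells, read out by a cell viability assay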
Description: SANGER: Inhibition of human HuCCT1 cell growth in a cell viability assay.

[6] = system: HuP-T3; format: functional, cell-based, Homo sapiens;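 note: HuP-T3 cell growth inhibition, read out with a cell viability assay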
Description: SANGER: Inhibition of human HuP-T3 cell growth in a cell viability assay.

[7] = system: KYSE-140; format: functional, cell-based, Homo sapiens;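 note: cell viability assay measuring growth inhibition in human KYSE-140 cells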
Description: SANGER: Inhibition of human KYSE-140 cell growth in a cell viability assay.

[8] = system: KYSE-510; format: functional, cell-based, Homo sapiens;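 note: cell viability readout used to measure how strongly growth of the cell line is suppressed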
Description: SANGER: Inhibition of human KYSE-510 cell growth in a cell viability assay.

[9] = system: LoVo; format: functional, cell-based, Homo sapiens;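 note: growth inhibition of human LoVo cells, read out with a cell viability assay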
Description: SANGER: Inhibition of human LoVo cell growth in a cell viability assay.

[10] = system: NB14; format: functional, cell-based, Homo sapiens;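 note: growth inhibition of NB14 cells measured with a cell viability assay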
Description: SANGER: Inhibition of human NB14 cell growth in a cell viability assay.

[11] = system: NCI-H1651; format: functional, cell-based, Homo sapiens;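 note: Read-out is a cell viability assay, with IC50 expressing inhibition of NCI-H1651 cell growth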
Description: SANGER: Inhibition of human NCI-H1651 cell growth in a cell viability assay.

[12] = system: NCI-H292; format: functional, cell-based, Homo sapiens;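 note: growth inhibition of NCI-H292 cells, read out with a cell viability assay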
Description: SANGER: Inhibition of human NCI-H292 cell growth in a cell viability assay.

[13] = system: NCI-H810; format: functional, cell-based, Homo sapiens;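 note: IC50 reflects inhibition of cancer cell line growth, read out with a cell viability assay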
Description: SANGER: Inhibition of human NCI-H810 cell growth in a cell viability assay.

[14] = system: OE19; format: functional, cell-based, Homo sapiens;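 note: growth inhibition of OE19 cells, measured through a cell viability read-out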
Description: SANGER: Inhibition of human OE19 cell growth in a cell viability assay.

[15] = system: OE33; format: functional, cell-based, Homo sapiens;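 note: growth inhibition of human OE33 cells, measured by a cell viability assay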
Description: SANGER: Inhibition of human OE33 cell growth in a cell viability assay.

[16] = system: OVCAR-8; format: functional, cell-based, Homo sapiens;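 note: growth inhibition of human OVCAR-8 cells, read out by a cell viability assay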
Description: SANGER: Inhibition of human OVCAR-8 cell growth in a cell viability assay.

[17] = system: PC-3; format: functional, cell-based, Homo sapiens;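 note: cell viability assay measuring growth inhibition of PC-3 cells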
Description: SANGER: Inhibition of human PC-3 cell growth in a cell viability assay.

[18] = system: RPMI-7951; format: functional, cell-based, Homo sapiens
Description: SANGER: Inhibition of human RPMI-7951 cell growth in a cell viability assay.

[19] = system: SAS; format: functional, cell-based, Homo sapiens;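 note: growth inhibition of SAS cells, read out with a cell viability assay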
Description: SANGER: Inhibition of human SAS cell growth in a cell viability assay.

[20] = system: SW1573; format: functional, cell-based, Homo sapiens;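 note: growth inhibition of SW1573 cells, read out with a cell viability assay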
Description: SANGER: Inhibition of human SW1573 cell growth in a cell viability assay.

[21] = system: SW-620; format: functional, cell-based, Homo sapiens;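 note: growth inhibition of human SW-620 cells, measured by a cell viability assay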
Description: SANGER: Inhibition of human SW620 cell growth in a cell viability assay.

[22] = system: SW837; format: functional, cell-based, Homo sapiens;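 note: growth inhibition of SW837 cells, determined with a cell viability assay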
Description: SANGER: Inhibition of human SW837 cell growth in a cell viability assay.

[23] = system: CWR22R; format: functional, cell-based, Homo sapiens;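 note: growth inhibition of 22Rv1 cells, read out with a cell viability assay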
Description: SANGER: Inhibition of human 22RV1 cell growth in a cell viability assay.

[24] = system: 769-P; format: functional, cell-based, Homo sapiens
Description: SANGER: Inhibition of human 769-P cell growth in a cell viability assay.

[25] = system: A-427; format: functional, cell-based, Homo sapiens;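 note: growth inhibition of human A-427 cells, read out by a cell viability assay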
Description: SANGER: Inhibition of human A427 cell growth in a cell viability assay.

[26] = system: BXPC-3; format: functional, cell-based, Homo sapiens;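 note: growth inhibition of human BxPC-3 cells, read out by a cell viability assay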
Description: SANGER: Inhibition of human BxPC-3 cell growth in a cell viability assay.

[27] = system: CAL-33; format: functional, cell-based, Homo sapiens;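 note: growth inhibition of CAL-33 cells, read out with a cell viability assay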
Description: SANGER: Inhibition of human CAL-33 cell growth in a cell viability assay.

[28] = system: CFPAC-1; format: functional, cell-based, Homo sapiens;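 note: cell viability readout used to gauge suppression of CFPAC-1 cell proliferation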
Description: SANGER: Inhibition of human CFPAC-1 cell growth in a cell viability assay.

[29] = system: COLO-678; format: functional, cell-based, Homo sapiens
Description: SANGER: Inhibition of human COLO-678 cell growth in a cell viability assay.

[30] = system: COLO-679; format: functional, cell-based, Homo sapiens
Description: SANGER: Inhibition of human COLO-679 cell growth in a cell viability assay.

CISPLATIN
pIC50 ([1]; hcc1954): 2.99
pIC50 ([2]; hgc-27): 5.18
pIC50 ([3]; hn): 4.44
pIC50 ([4]; ht-3): 5.30
pIC50 ([5]; hucct1): 4.15
pIC50 ([6]; hup-t3): 4.27
pIC50 ([7]; kyse-140): 5.12
pIC50 ([8]; kyse-510): 5.47
pIC50 ([9]; lovo): 4.24
pIC50 ([10]; nb14): 3.77
pIC50 ([11]; nci-h1651): 5.15
pIC50 ([12]; nci-h292): 3.44
pIC50 ([13]; nci-h810): 3.56
pIC50 ([14]; oe19): 3.15
pIC50 ([15]; oe33): 4.65
pIC50 ([16]; ovcar-8): 4.70
pIC50 ([17]; pc-3): 4.01
pIC50 ([18]; rpmi-7951): 5.39
pIC50 ([19]; sas): 4.73
pIC50 ([20]; sw1573): 4.36
pIC50 ([21]; sw-620): 3.80
pIC50 ([22]; sw837): 3.72
pIC50 ([23]; cwr22r): 4.60
pIC50 ([24]; 769-p): 4.79
pIC50 ([25]; a-427): 3.46
pIC50 ([26]; bxpc-3): 4.65
pIC50 ([27]; cal-33): 4.38
pIC50 ([28]; cfpac-1): 4.45
pIC50 ([29]; colo-678): 3.21
pIC50 ([30]; colo-679): 3.12

CC1(C)CNc2cc(NC(=O)c3cccnc3NCc3ccncc3)ccc21 [MOTESANIB]
pIC50 ([1]; Homo sapiens, HCC1954): < 5.70
pIC50 ([2]; Homo sapiens, HGC-27): < 5.70
pIC50 ([3]; Homo sapiens, HN): < 5.70
pIC50 ([4]; Homo sapiens, HT-3): < 5.70
pIC50 ([5]; Homo sapiens, HuCCT-1): < 5.70
pIC50 ([6]; Homo sapiens, HuP-T3): < 5.70
pIC50 ([7]; Homo sapiens, KYSE-140): < 5.70
pIC50 ([8]; Homo sapiens, KYSE-510): < 5.70
pIC50 ([9]; Homo sapiens, LoVo): < 5.70
pIC50 ([10]; Homo sapiens, NB14): < 5.70
pIC50 ([11]; Homo sapiens, NCI-H1651): < 5.70
pIC50 ([12]; Homo sapiens, NCI-H292): < 5.70
pIC50 ([13]; Homo sapiens, NCI-H810): < 5.70
pIC50 ([14]; Homo sapiens, OE19): < 5.70
pIC50 ([15]; Homo sapiens, OE33): < 5.70
pIC50 ([16]; Homo sapiens, OVCAR-8): < 5.70
pIC50 ([17]; Homo sapiens, PC-3): < 5.70
pIC50 ([18]; Homo sapiens, RPMI-7951): < 5.70
pIC50 ([19]; Homo sapiens, SAS): < 5.70
pIC50 ([20]; Homo sapiens, SW1573): < 5.70
pIC50 ([21]; Homo sapiens, SW-620): < 5.70
pIC50 ([22]; Homo sapiens, SW837): < 5.70
pIC50 ([23]; Homo sapiens, 22Rv1): < 5.70
pIC50 ([24]; Homo sapiens, 769-P): < 5.70
pIC50 ([25]; Homo sapiens, A-427): < 5.70
pIC50 ([26]; Homo sapiens, BXPC-3): < 5.70
pIC50 ([27]; Homo sapiens, CAL-33): < 5.70
pIC50 ([28]; Homo sapiens, CFPAC-1): < 5.70
pIC50 ([29]; Homo sapiens, COLO-678): < 5.70
pIC50 ([30]; Homo sapiens, COLO-679): < 5.70

CC(C)c1ccccc1Cc1cc(C(=O)Nc2ccc(S(=O)(=O)c3ccccc3C(C)(C)C)cc2)c(O)c(O)c1O
pIC50 ([1]; Homo sapiens, HCC1954): 6.05
pIC50 ([2]; Homo sapiens, HGC-27): 6.85
pIC50 ([3]; Homo sapiens, HN): 6.64
pIC50 ([4]; Homo sapiens, HT-3): 6.72
pIC50 ([5]; Homo sapiens, HuCCT-1): 6.46
pIC50 ([6]; Homo sapiens, HuP-T3): 5.89
pIC50 ([7]; Homo sapiens, KYSE-140): 6.73
pIC50 ([8]; Homo sapiens, KYSE-510): 6.65
pIC50 ([9]; Homo sapiens, LoVo): 6.79
pIC50 ([10]; Homo sapiens, NB14): 7.12
pIC50 ([11]; Homo sapiens, NCI-H1651): 6.00
pIC50 ([12]; Homo sapiens, NCI-H292): 6.44
pIC50 ([13]; Homo sapiens, NCI-H810): 6.18
pIC50 ([14]; Homo sapiens, OE19): 5.22
pIC50 ([15]; Homo sapiens, OE33): 6.16
pIC50 ([16]; Homo sapiens, OVCAR-8): 6.33
pIC50 ([17]; Homo sapiens, PC-3): 6.15
pIC50 ([18]; Homo sapiens, RPMI-7951): 6.05
pIC50 ([19]; Homo sapiens, SAS): 7.48
pIC50 ([20]; Homo sapiens, SW1573): 6.62
pIC50 ([21]; Homo sapiens, SW-620): 6.02
pIC50 ([22]; Homo sapiens, SW837): 5.62
pIC50 ([23]; Homo sapiens, 22Rv1): 5.99
pIC50 ([24]; Homo sapiens, 769-P): 6.86
pIC50 ([25]; Homo sapiens, A-427): 7.35
pIC50 ([26]; Homo sapiens, BXPC-3): 5.61
pIC50 ([27]; Homo sapiens, CAL-33): 6.09
pIC50 ([28]; Homo sapiens, CFPAC-1): 6.28
pIC50 ([29]; Homo sapiens, COLO-678): 5.48
pIC50 ([30]; Homo sapiens, COLO-679): 6.63
